Entries after “also recorded” stand apart in the source; their conditions may differ. Structures can show the parent of a compound that is named as a salt. Where two headings read alike, the source gives them in different places. Numbered stars: 1 amine (or outer) side, 2 acyl side, 3 side chain; on linkers, the order of the positions; unused ones are H or OH. Square brackets hold non-standard residues; d marks the D form. Peptide text beside a SMILES is read from it. * marks the point of attachment. Sta = CC(C)C[C@H](N)[C@@H](O)CC(=O)O; Isovaleryl = CC(C)CC(=O)*; Cbz = O=C(OCc1ccccc1)*; CO = O=C([*:1])[*:2]; CH2Cl = ClC*
Key:
[1] = target: recombinant SmPOP (Schistosoma mansoni, UniProt A0A5K4EZK1); test: biochemical; type: biochemical
[2] = target: T1, human POP (HsPOP) (Homo sapiens, UniProt P48147); test: biochemical
T1 sequence (P48147 1-710): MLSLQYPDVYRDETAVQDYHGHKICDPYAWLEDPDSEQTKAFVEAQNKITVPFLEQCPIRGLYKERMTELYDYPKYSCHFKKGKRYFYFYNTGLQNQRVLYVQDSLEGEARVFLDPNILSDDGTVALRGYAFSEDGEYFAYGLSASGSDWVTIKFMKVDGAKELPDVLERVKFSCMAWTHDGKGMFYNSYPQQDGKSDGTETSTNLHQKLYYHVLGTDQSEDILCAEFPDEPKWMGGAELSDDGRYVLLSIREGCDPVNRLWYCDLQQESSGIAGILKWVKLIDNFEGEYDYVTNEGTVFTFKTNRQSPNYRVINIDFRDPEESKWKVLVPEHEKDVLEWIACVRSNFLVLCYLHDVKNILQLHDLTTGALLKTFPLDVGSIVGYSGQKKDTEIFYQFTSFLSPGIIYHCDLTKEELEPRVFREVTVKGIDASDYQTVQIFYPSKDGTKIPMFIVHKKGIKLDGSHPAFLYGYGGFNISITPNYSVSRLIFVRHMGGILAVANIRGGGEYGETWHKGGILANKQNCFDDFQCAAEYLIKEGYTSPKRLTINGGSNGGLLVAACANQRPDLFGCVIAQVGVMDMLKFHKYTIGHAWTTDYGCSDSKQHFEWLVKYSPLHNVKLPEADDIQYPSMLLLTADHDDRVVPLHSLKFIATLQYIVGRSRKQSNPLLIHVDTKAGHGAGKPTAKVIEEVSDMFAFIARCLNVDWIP

[3] = tested on: newly transformed schistosomula (NTS); test: Parasite assay and phenotype scoring with NTS in culture; type: cell-based, Schistosoma mansoni; settings: inhibitors at 10 μM and 1 μM, up to 4 days, grade I most severe
Procedure: NTS (200–300 parasites) were incubated in 200 μL of Basch Medium 169 and supplements, as described above. Inhibitors were added at final concentrations of 1 or 10 μM (0.5% DMSO final) and the incubations continued for 4 days. Grading of phenotypic responses arising as a function of time and concentration was modified after Jilkova et al.: Grade I, dead NTS by 2 days of culture at 10 μM and dying/dead NTS by 3 days at 1 μM. Grade II, dead NTS by 3 days at 10 μM and round/dark/dying by 3 days at 1 μM; Grade III, round/dark by 3 days at 1 and 10 μM concentrations (S1 Fig). ‘Dead’ was adjudicated as the loss of normal shape and the lack of movement often accompanied by obvious internal disruptions. ‘Dying’ was similar to death except that movement was detectable. Otherwise, the terms ‘round/dark’ were used to indicate less severe but obvious changes in the parasites relative to DMSO controls.

[4] = tested on: SmPOP activity of live NTS and adult schistosomes; test: Fluorescence SmPOP activity assay with cultured schistosomes; type: cell-based, Schistosoma mansoni; settings: 1 μM inhibitor; NTS or adult worms in culture
Procedure: Adult worms (3 pairs) or approximately 150 NTS were incubated at 37°C and 5% CO2 for 2 days in 200 μL of Basch Medium 169 containing 5% FBS, 100 units/mL of penicillin and 100 μg/mL using black clear bottomed 96-well microplates (Costar). After incubation, half of the medium (100 μl) was transferred to an empty well leaving the parasites in the remaining half. Then SmPOP activity was measured in both wells upon the addition of 20 μL of Z-Gly-Pro-AMC (prepared as a 250 μM stock in Basch Medium 169) and in the presence or absence of 1 μM of the POP inhibitor, Z-Ala-Pro-CMK. Controls contained medium alone.

[5] = tested on: adult schistosomes (cleavage of angiotensin I and bradykinin); test: Hydrolysis of peptide hormones by cultured schistosomes (MALDI-TOF); type: cell-based, Schistosoma mansoni; settings: live adults in culture; 16 h; mass spectrometry
Procedure: Five adult schistosome pairs were placed into clear, 24-well, flat-bottom plates (Costar) containing 500 μL Basch Medium […] [28], supplemented with 2.5% FBS, 100 units/mL penicillin and 100 μg/mL streptomycin. Human angiotensin I or bradykinin in 5 μL water was added to a final concentration of 100 μM and the incubation continued for 16 h at 37°C under a 5% CO2 atmosphere. In control experiments, the peptides were cultivated in the same system in the absence of schistosomes. After incubation, the samples were ZipTiped and the resulting fragments were analyzed using MALDI-TOF performed on an UltrafleXtreme (Bruker Daltonik) operated in reflectron mode with an acceleration voltage of 25 kV and a pulsed ion extraction of 120 ns. Desorption and ionization were achieved using a Smartbeam II laser. α-Cyano-4-hydroxycinnamic acid was used as a matrix. The data were acquired from m/z 220 to 3700 and analyzed with the FlexAnalysis 3.3 software (Bruker Daltonik). The mass spectra were externally calibrated using a Peptide Calibration Standard I (Bruker Daltonik) and averaged from 3000 laser shots.

## O=C[C@@H]1CCCN1C(=O)[C@H](Cc1ccc(O)cc1)NC(=O)OCc1ccccc1 [Z-Tyr-Pro-CHO] (Cbz-Tyr-Pro-aldehyde)
[1]; read-out: IC50 (μM) SmPOP
  IC50: 4.4 ± 0.4 µM
[2]; read-out: IC50 (μM) HsPOP
  IC50: 11.4 ± 0.7 µM

## N=C(N)c1ccccc1 [Benzamidine]
[1]
  Inhibition of rSmPOP activity (in words): only weakly
  inhibition at 10 µM: 3.7 ± 1.1%

## CC(C)C[C@H](NC(=O)[C@H]1O[C@@H]1C(=O)O)C(=O)NCCCCN=C(N)N (relative stereo) [E64, trans-Epoxysuccinyl-L-leucylamido(4-guanidino)butane]
[1]; 10 µM
  Inhibition (%): 6.5±6.1%

## O=C(O)[C@@H]1CCCN1C(=O)OCc1ccccc1 [Z-Pro-OH]
[1]; 100 µM
  Inhibition (%): 41.1±1.8%

## O=C(O)[C@@H]1CCCN1C(=O)[C@@H]1CCCN1C(=O)OCc1ccccc1 [Z-Pro-Pro-OH] (Cbz-Pro-Pro-OH)
[1]; 100 µM
  Inhibition (%): 37.6±2.1%

## O=S(=O)(F)Cc1ccccc1 [PMSF, phenylmethylsulfonyl fluoride]
[1]
  Inhibition of rSmPOP activity (in words): Partial inhibition
[1]; 1000 µM
  Inhibition (%): 47.6±1.6%

## N=C(N)NCCC[C@H](NC(=O)OCc1ccccc1)C(=O)N1CCC[C@H]1C(=O)CCl [Z-Arg-Pro-CMK] (Cbz-Arg-Pro-CH2Cl)
[1]; read-out: IC50 (μM) SmPOP
  IC50: 0.0029 ± 0.0001 µM
[2]; read-out: IC50 (μM) HsPOP
  IC50: 0.0048 ± 0.0006 µM

## Cc1ccc(S(=O)(=O)N[C@@H](CCCCN)C(=O)CCl)cc1 [TLCK, Nα-Tosyl-L-lysine chloromethyl ketone]
[1]
  Inhibition of rSmPOP activity (in words): Partial inhibition
[1]; 1 µM
  Inhibition (%): 38.3±1.2%

## CC(=O)N[C@@H](CC(C)C)C(=O)N[C@@H](CC(C)C)C(=O)N[C@H](C=O)CCCNC(=N)N [Leupeptin]
[1]
  inhibition at 20 µM: 2.3 ± 1.2%

## O=C(O)CN(CCN(CC(=O)O)CC(=O)O)CC(=O)O [EDTA]
[1]; 1000 µM
  Inhibition (%): 3.8±2.3%

## O=C[C@@H]1CCCN1C(=O)[C@@H]1CCCN1C(=O)OCc1ccccc1 [Z-Pro-Pro-CHO, benzyloxycarbonyl-L-prolyl-L-prolinal] (Cbz-Pro-Pro-aldehyde)
[1]
  Inhibition of rSmPOP activity (in words): completely inhibited
[1]; read-out: IC50 (μM) SmPOP
  IC50: 0.16 ± 0.03 µM
[1]; read-out: Inhibition (%)
  inhibition at 1 µM: 100 ± 1%
[3]
  Severity of phenotype against parasite, Grade: no effect

## N=C(N)NCCC[C@H](NC(=O)OCc1ccccc1)C(=O)N1CCC[C@H]1C=O [Z-Arg-Pro-CHO] (Cbz-Arg-Pro-aldehyde)
[1]; read-out: IC50 (μM) SmPOP
  IC50: 1.3 ± 0.3 µM
[2]; read-out: IC50 (μM) HsPOP
  IC50: 2.4 ± 0.2 µM

## CC(C)[C@H](NC(=O)[C@H](CCCNC(=N)N)NC(=O)N[C@@H](Cc1ccccc1)C(=O)O)C(=O)N[C@H](C=O)CCCNC(=N)N [Antipain] ({Phe-CO}-Arg-Val-Arg-aldehyde)
[1]
  inhibition at 20 µM: 32.4 ± 1.4%

## O=C([C@@H]1C[C@@H](O)CN1C(=O)CCCOc1ccccc1/C=C/c1ccccc1)N1CCSC1 [SUAM 14746]
[1]; read-out: IC50 SmPOP
  IC50: 0.092 µM
[3]
  Severity of phenotype against parasite, Grade: no effect
[2]; read-out: IC50 human POP
  IC50: 0.083 µM

## O=C[C@@H]1CCCN1C(=O)CNC(=O)OCc1ccccc1 [Z-Gly-Pro-CHO] (Cbz-Gly-Pro-aldehyde)
[1]; read-out: IC50 (μM) SmPOP
  IC50: 6.1 ± 0.4 µM

## C[C@H](NC(=O)OCc1ccccc1)C(=O)N1CCC[C@H]1C(=O)CCl [Z-Ala-Pro-CMK, Z-Ala-Pro-chloromethyl ketone] (Cbz-Ala-Pro-CH2Cl)
[4]
  Cleavage of Z-Gly-Pro-AMC by live NTS or adult schistosomes in the presence of inhibitor: abolished
[1]
  Inhibition of rSmPOP activity (in words): completely inhibited
  inhibition at 1 µM: 100 ± 3%
[1]; read-out: IC50 (μM) SmPOP
  IC50: 0.0032 ± 0.0004 µM
[5]
  Fragmentation of angiotensin I and bradykinin by adult parasites in the presence of inhibitor: abolished
[2]; read-out: IC50 (μM) HsPOP
  IC50: 0.0168 ± 0.0046 µM

## NCCCC[C@H](NC(=O)OCc1ccccc1)C(=O)N1CCC[C@H]1C=O [Z-Lys-Pro-CHO] (Cbz-Lys-Pro-aldehyde)
[1]; read-out: IC50 (μM) SmPOP
  IC50: 3 ± 0.6 µM
[3]
  Severity of phenotype against parasite, Grade: I
[2]; read-out: IC50 (μM) HsPOP
  IC50: 7.2 ± 0.6 µM

## Cc1ccc(S(=O)(=O)N[C@@H](Cc2ccccc2)C(=O)CCl)cc1 [TPCK, N-p-Tosyl-L-phenylalanine chloromethyl ketone]
[1]
  Inhibition of rSmPOP activity (in words): Partial inhibition
[1]; 1 µM
  Inhibition (%): 67.2±6.2%

## CC(C)c1ccc(C(=O)c2cccs2)c(SCCCCCCCCN(C)C)n1 [Y-29794 oxalate, 2-[[8-(Dimethylamino)octyl]thio]-6-(1-methylethyl)-3-pyridinyl-2-thienylmethanone oxalate]
[1]; read-out: IC50 (μM) SmPOP
  IC50: 8.6 ± 0.4 µM
[2]; HsPOP, Z-Gly-Pro-AMC, pH 8.0, mean ± S.D., n=3, read-out: IC50 (μM) HsPOP
  IC50: 0.49 ± 0.03 µM

## CC(C)CC(=O)N[C@H](C(=O)N[C@H](C(=O)N[C@@H](CC(C)C)[C@@H](O)CC(=O)N[C@@H](C)C(=O)N[C@@H](CC(C)C)[C@@H](O)CC(=O)O)C(C)C)C(C)C [Pepstatin A] (Isovaleryl-VV[Sta]A[Sta]-OH)
[1]
  inhibition at 1 µM: 7.3 ± 3.5%

## Cl.NCCc1ccc(S(=O)(=O)F)cc1 [Pefabloc SC]
[1]
  Inhibition of rSmPOP activity (in words): Partial inhibition; also recorded: only weakly
[1]; 1000 µM
  Inhibition (%): 12.0±3.1%

## CC(C)C[C@H](NC(=O)[C@@H](O)[C@H](N)Cc1ccccc1)C(=O)O [Bestatin]
[1]; read-out: Inhibition (%)
  inhibition at 1 µM: 2.3 ± 2.1%

## O=c1oc(Cl)c(Cl)c2ccccc12 [3,4-dichloroisocoumarin]
[1]
  Inhibition of rSmPOP activity (in words): Partial inhibition
  inhibition at 100 µM: 77.3 ± 0.6%

## C[C@H](NC(=O)OCc1ccccc1)C(=O)N1CCC[C@H]1C=O [Z-Ala-Pro-CHO] (Cbz-Ala-Pro-aldehyde)
[1]; read-out: IC50 (μM) SmPOP
  IC50: 3.1 ± 0.2 µM
[2]; read-out: IC50 (μM) HsPOP
  IC50: 6.1 ± 0.3 µM

B1: STI: soybean trypsin inhibitor, protein inhibitor of serine peptidases (protein, UniProt P01070 25-205, looked up)
Trypsin inhibitor A: DFVLDNEGNPLENGGTYYILSDITAFGGIRAAPTGNERCPLTVVQSRNELDKGIGTIISSPYRIRFIAEGHPLSLKFDSFAVIMLCVGIPTEWSVVEDLPEGPAVKIGENKDAMDGWFRLERVSDDEFNNYKLVFCPQQAEDDKCGDIGISIDHDDGTRRLVVSKNKPLVVQFQKLDKESL
[1]
  Inhibition of rSmPOP activity (in words): neither affected
[1]; 10 µM
  Inhibition (%): 12.3±3.2%

Source: PMC4454677, “Prolyl Oligopeptidase from the Blood Fluke Schistosoma mansoni: From Functional Analysis to Anti-schistosomal Inhibitors” (PLoS Neglected Tropical Diseases, 2015)
